{
  "source": "patent US9301951B2",
  "about": "(Ardelyx, Inc., priority 2010, dated 2016)",
  "biological_target": "T1, rat NaP2b (SLC34A2) (Rattus norvegicus, UniProt Q9JJ09)",
  "T1 construct": "host or cells: HEK293",
  "T1 sequence (Q9JJ09 1-695)": "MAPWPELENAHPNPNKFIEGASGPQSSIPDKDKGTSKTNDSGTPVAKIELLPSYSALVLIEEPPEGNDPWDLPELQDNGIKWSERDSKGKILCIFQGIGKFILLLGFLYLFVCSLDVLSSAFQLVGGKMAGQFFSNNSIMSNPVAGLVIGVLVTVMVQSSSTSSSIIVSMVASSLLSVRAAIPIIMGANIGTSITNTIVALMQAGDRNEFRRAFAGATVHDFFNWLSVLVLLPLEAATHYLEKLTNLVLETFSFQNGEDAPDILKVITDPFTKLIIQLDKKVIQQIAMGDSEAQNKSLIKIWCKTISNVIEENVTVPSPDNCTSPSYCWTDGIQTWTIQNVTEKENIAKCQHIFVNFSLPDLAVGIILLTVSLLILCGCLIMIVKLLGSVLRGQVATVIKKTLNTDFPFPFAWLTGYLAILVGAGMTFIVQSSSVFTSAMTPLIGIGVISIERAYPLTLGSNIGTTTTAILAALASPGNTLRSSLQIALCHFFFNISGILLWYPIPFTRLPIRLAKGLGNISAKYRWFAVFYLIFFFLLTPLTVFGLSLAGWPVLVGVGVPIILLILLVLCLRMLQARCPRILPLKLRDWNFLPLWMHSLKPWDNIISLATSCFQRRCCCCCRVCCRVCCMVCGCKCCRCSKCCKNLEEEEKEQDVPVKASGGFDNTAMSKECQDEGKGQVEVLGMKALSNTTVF",
  "test": "Inhibition of NaP2b-mediated Pi (33P) uptake in transfected HEK293 cells, rat NaP2b",
  "type": "cell-based",
  "conditions": "HEK293 cells transfected with rat NaP2b, 100 uM phosphate, 0.1 nM to 30 uM, read-out: pIC50 range for rat Nap2b (converted)",
  "method": "HEK293 cells were obtained from the American Type Culture collection and propagated per their instructions. Expression clones for rat and human NaP2b (SLC34A2) were obtained from Open Biosystems (Catalog numbers MRN1768-9510282, and MHS1010-99823026, respectively). The sequence of the human protein was mutated to insert a threonine after residue 37, and to introduce a N39D mutation.\nCells were seeded into 96-well plates at 25,000 cells/well and cultured overnight. Lipofectamine 2000 (Invitrogen) was used to introduce the NaP2b cDNA, and the cells were allowed to approach confluence during a second overnight incubation. […] Cells were then overlayed with either choline uptake buffer or sodium uptake buffer (14 mM Tris, 137 mM sodium chloride, 5.4 mM KCl, 2.8 mM CaCl2, 1.2 mM MgSO4, 100 uM KH2PO4, PiT-silencing agent, 1 mg/mL Bovine Serum Albumin, pH 7.4) containing 6-9 uCi/mL ^33P orthophosphoric acid (Perkin Elmer) and test compound. Each compound was tested at twelve concentrations ranging from 0.1 nM to 30 uM. Assays were run in duplicate.\nCells were lysed by addition of 20 μL 0.1% Tween 80 followed by 100 μL scintillation fluid, and counted using a TopCount (Perkin Elmer).\npIC50 (the negative log of the […]) values of the test compounds were calculated using GraphPad Prism.",
  "data": [
    {"smiles": "O=C(O)CCSCc1cccc(C(=O)Nc2ccc(Oc3ccccc3)cc2-c2cc(C(=O)NCc3cccc(C(F)(F)F)c3)ccn2)c1", "note": "[Example 36, 3-((3-((4-Phenoxy-2-(4-((3-(trifluoromethyl)benzyl)carbamoyl)pyridin-2-yl)phenyl)carbamoyl)benzyl)thio)propanoic acid]", "values": [
      {"measurement": "IC50", "value": "1 to 7.94", "unit": "µM"}
    ]},
    {"smiles": "O=C(O)CCSCc1cccc(C(=O)Nc2ccc(OCC(F)(F)F)cc2-c2cc(C(=O)NCc3cccc(C(F)(F)F)c3)ccn2)c1", "note": "[Example 32]", "values": [
      {"measurement": "IC50", "value": "10 to 31.6", "unit": "µM"}
    ]},
    {"smiles": "COCCOc1ccc(NC(=O)c2cccc(CSCCC(=O)O)c2)c(-c2cc(C(=O)NCc3cccc(C(F)(F)F)c3)ccn2)c1", "note": "[Example 34, 3-((3-((4-(2-Methoxyethoxy)-2-(4-((3-(trifluoromethyl)benzyl)carbamoyl)pyridin-2-yl)phenyl)carbamoyl)benzyl)thio)propanoic acid]", "values": [
      {"measurement": "IC50", "value": "10 to 31.6", "unit": "µM"}
    ]},
    {"smiles": "CC(=O)N1CCCN(Cc2cccc(C(=O)Nc3ccc(N4CCCCC4)cc3-c3cc(C(=O)NCc4cccc(C(F)(F)F)c4)ccn3)c2)CC1", "note": "[Example 49, 2-(2-(3-((4-Acetyl-1,4-diazepan-1-yl)methyl)benzamido)-5-(piperidin-1-yl)phenyl)-N-(3-(trifluoromethyl)benzyl)isonicotinamide]", "values": [
      {"measurement": "IC50", "value": "1 to 7.94", "unit": "µM"}
    ]},
    {"smiles": "CN(Cc1cccc(C(=O)Nc2ccc(N3CCCCC3)cc2-c2cc(C(=O)NCc3cccc(C(F)(F)F)c3)ccn2)n1)C(=O)CN1CCOCC1", "note": "[Example 53, 6-((N-Methyl-2-morpholinoacetamido)methyl)-N-(4-(piperidin-1-yl)-2-(4-((3-(trifluoromethyl)benzyl)carbamoyl)pyridin-2-yl)phenyl)picolinamide]", "values": [
      {"measurement": "IC50", "value": "1 to 7.94", "unit": "µM"}
    ]},
    {"smiles": "O=C(O)CCSCc1cccc(C(=O)Nc2ccc(F)cc2-c2cc(C(=O)NCc3cccc(C(F)(F)F)c3)ccn2)c1", "note": "[Example 18, 3-((3-((4-Fluoro-2-(4-((3-(trifluoromethyl)benzyl)carbamoyl)pyridin-2-yl)phenyl)carbamoyl)benzyl)thio)propanoic acid]", "values": [
      {"measurement": "IC50", "value": "1 to 7.94", "unit": "µM"}
    ]},
    {"smiles": "O=C(O)CCSCc1cccc(C(=O)Nc2ccc(N3CCCC3)cc2-c2cc(C(=O)NCc3cccc(C(F)(F)F)c3)ccn2)c1", "note": "[Example 20, 3-((3-((4-(Pyrrolidin-1-yl)-2-(4-((3-(trifluoromethyl)benzyl)carbamoyl)pyridin-2-yl)phenyl)carbamoyl)benzyl)thio)propanoic acid]", "values": [
      {"measurement": "IC50", "value": "1 to 7.94", "unit": "µM"}
    ]},
    {"smiles": "CN(CCN1CCN(S(C)(=O)=O)CC1)Cc1cccc(C(=O)Nc2ccc(N3CCCCC3)cc2-c2cc(C(=O)NCc3cccc(C(F)(F)F)c3)ccn2)c1", "note": "[Example 39]", "values": [
      {"measurement": "IC50", "value": "1 to 7.94", "unit": "µM"}
    ]},
    {"smiles": "CCN(CC)c1ccc(NC(=O)c2cccc(C(=O)N(C)CCN3CCCN(C(=O)OCCOCCOCCOCCOCCOCCOCCOCCOCCOCCOCCOC)CC3)c2)c(-c2cc(C(=O)N[C@H]3CCCc4ccccc43)ccn2)c1", "note": "[Example 199, (S)-2,5,8,11,14,17,20,23,26,29,32-undecaoxatetratriacontan-34-yl 4-(2-(3-((4-(diethylamino)-2-(4-((1,2,3,4-tetrahydronaphthalen-1-yl)carbamoyl)pyridin-2-yl)phenyl)carbamoyl)-N-methylbenzamido)ethyl)-1,4-diazepane-1-carboxylate]", "values": [
      {"measurement": "IC50", "value": "1 to 7.94", "unit": "µM"}
    ]},
    {"smiles": "CC(C)(C)OC(=O)N1CCCN(Cc2cccc(C(=O)Nc3ccc(N4CCCCC4)cc3-c3cc(C(=O)NCc4cccc(C(F)(F)F)c4)ccn3)c2)CC1", "note": "[Example 44, tert-Butyl 4-(3-((4-(piperidin-1-yl)-2-(4-((3-(trifluoromethyl)benzyl)carbamoyl)pyridin-2-yl)phenyl)carbamoyl)benzyl)-1,4-diazepane-1-carboxylate]", "values": [
      {"measurement": "IC50", "value": "10 to 31.6", "unit": "µM"}
    ]},
    {"smiles": "O=C(O)CCSCc1cccc(C(=O)Nc2ccc(N3CCCCC3)cc2-c2cc(C(O)CCc3ccccc3)ccn2)c1", "note": "(stereo not drawn) [Example 6.1, 3-((3-((2-(4-(1-hydroxy-3-phenylpropyl)pyridin-2-yl)-4-(piperidin-1-yl)phenyl)carbamoyl)benzyl)thio)propanoic acid]", "values": [
      {"measurement": "IC50", "value": "10 to 31.6", "unit": "µM"}
    ]},
    {"smiles": "O=C(O)CCSCc1cccc(C(=O)Nc2ccccc2-c2cc(C(=O)NCc3cccc(C(F)(F)F)c3)ccn2)c1", "note": "[Example 22, 3-((3-((2-(4-((3-(Trifluoromethyl)benzyl)carbamoyl)pyridin-2-yl)phenyl)carbamoyl)benzyl)thio)propanoic acid]", "values": [
      {"measurement": "IC50", "value": "10 to 31.6", "unit": "µM"}
    ]},
    {"smiles": "CN1CCN(CCN(C)Cc2cccc(C(=O)Nc3ccc(N4CCCCC4)cc3-c3cc(C(=O)NCc4cccc(C(F)(F)F)c4)ccn3)c2)CC1", "note": "[Example 40, 2-(2-(3-((Methyl(2-(4-methylpiperazin-1-yl)ethyl)amino)methyl)benzamido)-5-(piperidin-1-yl)phenyl)-N-(3-(trifluoromethyl)benzyl)isonicotinamide]", "values": [
      {"measurement": "IC50", "value": "10 to 31.6", "unit": "µM"}
    ]},
    {"smiles": "CC(C)Oc1ccc(NC(=O)c2cccc(CSCCC(=O)O)c2)c(-c2cc(C(=O)NCc3cccc(C(F)(F)F)c3)ccn2)c1", "note": "[Example 15, 3-((3-((4-Isopropoxy-2-(4-((3-(trifluoromethyl)benzyl)carbamoyl)pyridin-2-yl)phenyl)carbamoyl)benzyl)thio)propanoic acid]", "values": [
      {"measurement": "IC50", "value": "1 to 7.94", "unit": "µM"}
    ]},
    {"smiles": "O=C(O)CCSCc1cccc(C(=O)Nc2ccc(N3CCCCC3)cc2-c2cc(C(=O)NCc3ccccc3)ccn2)c1", "note": "[Example 1.4]", "values": [
      {"measurement": "IC50", "value": "1 to 7.94", "unit": "µM"}
    ]},
    {"smiles": "CC(C)COc1ccc(NC(=O)c2cccc(CSCCC(=O)O)c2)c(-c2cc(C(=O)NCc3cccc(C(F)(F)F)c3)ccn2)c1", "note": "[Example 33]", "values": [
      {"measurement": "IC50", "value": "10 to 31.6", "unit": "µM"}
    ]},
    {"smiles": "O=C(O)CCSCc1cccc(C(=O)Nc2ccc(N3CC4CCCC4C3)cc2-c2cc(C(=O)NCc3cccc(C(F)(F)F)c3)ccn2)c1", "note": "(stereo not drawn) [Example 28, 3-((3-((4-(Hexahydrocyclopenta[c]pyrrol-2(1H)-yl)-2-(4-((3-(trifluoromethyl)-benzyl)carbamoyl)pyridin-2-yl)phenyl)carbamoyl)benzyl)thio)propanoic acid]", "values": [
      {"measurement": "IC50", "value": "1 to 7.94", "unit": "µM"}
    ]},
    {"smiles": "CCSc1ccc(NC(=O)c2cccc(CSCCC(=O)O)c2)c(-c2cc(C(=O)NCc3cccc(C(F)(F)F)c3)ccn2)c1", "note": "[Example 35, 3-((3-((4-(Ethylthio)-2-(4-((3-(trifluoromethyl)benzyl)carbamoyl)pyridin-2-yl)phenyl)carbamoyl)benzyl)thio)propanoic acid]", "values": [
      {"measurement": "IC50", "value": "1 to 7.94", "unit": "µM"}
    ]},
    {"smiles": "COc1ccc(NC(=O)c2cccc(CSCCC(=O)O)c2)c(-c2cc(C(=O)NCc3cccc(C(F)(F)F)c3)ccn2)c1", "note": "[Example 30, 3-((3-((4-Methoxy-2-(4-((3-(trifluoromethyl)benzyl)carbamoyl)pyridin-2-yl)phenyl)carbamoyl)benzyl)thio)propanoic acid]", "values": [
      {"measurement": "IC50", "value": "1 to 7.94", "unit": "µM"}
    ]},
    {"smiles": "CC(=O)NC1CCN(Cc2cccc(C(=O)Nc3ccc(N4CCCCC4)cc3-c3cc(C(=O)NCc4cccc(C(F)(F)F)c4)ccn3)c2)CC1", "note": "[Example 46, 2-(2-(3-((4-Acetamidopiperidin-1-yl)methyl)benzamido)-5-(piperidin-1-yl)phenyl)-N-(3-(trifluoromethyl)benzyl)isonicotinamide]", "values": [
      {"measurement": "IC50", "value": "10 to 31.6", "unit": "µM"}
    ]},
    {"smiles": "COC1CCN(c2ccc(NC(=O)c3cccc(CSCCC(=O)O)c3)c(-c3cc(C(=O)NCc4cccc(C(F)(F)F)c4)ccn3)c2)CC1", "note": "[Example 31, 3-((3-((4-(4-Methoxypiperidin-1-yl)-2-(4-((3-(trifluoromethyl)benzyl)carbamoyl)-pyridin-2-yl)phenyl)carbamoyl)benzyl)thio)propanoic acid]", "values": [
      {"measurement": "IC50", "value": "10 to 31.6", "unit": "µM"}
    ]},
    {"smiles": "CN1CCCN(Cc2cccc(C(=O)Nc3ccc(N4CCCCC4)cc3-c3cc(C(=O)NCc4cccc(C(F)(F)F)c4)ccn3)c2)CC1", "note": "[Example 45, 2-(2-(3-((4-Methyl-1,4-diazepan-1-yl)methyl)benzamido)-5-(piperidin-1-yl)phenyl)-N-(3-(trifluoromethyl)benzyl)isonicotinamide]", "values": [
      {"measurement": "IC50", "value": "10 to 31.6", "unit": "µM"}
    ]},
    {"smiles": "COCCN(CCOC)c1ccc(NC(=O)c2cccc(CSCCC(=O)O)c2)c(-c2cc(C(=O)NCc3cccc(C(F)(F)F)c3)ccn2)c1", "note": "[Example 17, 3-(3-((2-(4-((3-(trifluoromethyl)benzyl)carbamoyl)pyridin-2-yl)-4-(bis(2-methoxyethyl)amino)phenyl)carbamoyl)benzylthio)propanoic acid]", "values": [
      {"measurement": "IC50", "value": "1 to 7.94", "unit": "µM"}
    ]},
    {"smiles": "CC(=O)NC1CCN(Cc2cccc(C(=O)Nc3ccc(N4CCCCC4)cc3-c3cc(C(=O)NCc4cccc(C(F)(F)F)c4)ccn3)c2)C1", "note": "(stereo in doubt) [Example 48, (S)-2-(2-(3-((3-Acetamidopyrrolidin-1-yl)methyl)benzamido)-5-(piperidin-1-yl)phenyl)-N-(3-(trifluoromethyl)benzyl)isonicotinamide]", "values": [
      {"measurement": "IC50", "value": "1 to 7.94", "unit": "µM"}
    ]}
  ]
}
